# Bridge positions count the residues as written; N and C are the ends. Square brackets hold non-standard residues; d marks the D form. Peptide text beside a SMILES is read from it. Hyp = O=C(O)[C@@H]1C[C@@H](O)CN1
# Biological target: α-chymotrypsin (Bos taurus, UniProt P00766)
# Experiment: Chymotrypsin inhibitory activity of peptides (AAPFpNA hydrolysis; IC50, Ki, residual activity)
# Assay type: biochemical
# Settings: for Ki: Ki=IC50/(1+S/Km), Km 0.38 mM; for IC50: chymotrypsin 30 nM, AAPFpNA 0.5 mM
# How it was run: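 Peptide preincubated 10 min at 37 °C with 30 nM α-chymotrypsin in 50 mM Tris-HCl pH 7.8, 20 mM CaCl2; 0.5 mM AAPFpNA then added and A405 read after 90 min. Residual activity versus controls gave IC50; Ki = IC50/(1+S/Km), with Km measured separately.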
SMILES,inhibitory activity against chymotrypsin (in words),Residual activity of chymotrypsin (peptide 1000 μM),Ki,IC50
CC[C@H](C)[C@H](N)C(=O)N[C@H]1CSSC[C@@H](C(=O)N[C@H](C(=O)O)[C@@H](C)CC)NC(=O)[C@H](CCC(N)=O)NC(=O)[C@H](C)NC(=O)[C@@H]2CCCN2C(=O)[C@H]([C@@H](C)CC)NC(=O)[C@H](CO)NC(=O)[C@H](Cc2ccccc2)NC(=O)[C@H]([C@@H](C)O)NC1=O [CH38] (H-ICTFSIPAQCI-OH; disulfide 2-10; N-terminus and C-terminus assumed),–,–,2.15 µM,4.98 µM
CC[C@H](C)[C@H](N)C(=O)N[C@H]1CSSC[C@@H](C(=O)N[C@@H](Cc2ccccc2)C(=O)O)NC(=O)[C@H](CCC(N)=O)NC(=O)[C@H](C)NC(=O)[C@@H]2CCCN2C(=O)[C@H]([C@@H](C)CC)NC(=O)[C@H](CO)NC(=O)[C@H](Cc2ccccc2)NC(=O)[C@H]([C@@H](C)O)NC1=O [CH40] (H-ICTFSIPAQCF-OH; disulfide 2-10; N-terminus and C-terminus assumed),–,–,1.06 µM,2.46 µM
CSCC[C@@H]1NC(=O)[C@H](CO)NC(=O)[C@H](Cc2ccc(O)cc2)NC(=O)[C@H]([C@@H](C)O)NC(=O)[C@@H](NC(=O)[C@@H](N)Cc2ccccc2)CSSC[C@@H](C(=O)N[C@H](C(=O)O)C(C)C)NC(=O)[C@H](Cc2c[nH]cn2)NC(=O)[C@@H]2CCCN2C(=O)[C@@H]2CCCN2C1=O [CH41] (H-FCTYSMPPHCV-OH; disulfide 2-10; N-terminus and C-terminus assumed),–,–,1.12 µM,2.6 µM
CC(C)C[C@H](NC(=O)[C@@H]1CSSC[C@H](NC(=O)[C@@H](N)CCCNC(=N)N)C(=O)N[C@@H](CC(=O)O)C(=O)N[C@@H](Cc2ccccc2)C(=O)N[C@@H](CO)C(=O)N[C@@H](Cc2c[nH]c3ccccc23)C(=O)N2CCC[C@H]2C(=O)N2CCC[C@H]2C(=O)N[C@@H](CCCNC(=N)N)C(=O)N1)C(=O)O [CH42] (H-RCDFSWPPRCL-OH; disulfide 2-10; N-terminus and C-terminus assumed),–,–,–,> 50 µM
C[C@@H]1NC(=O)[C@@H](NC(=O)[C@@H](N)Cc2ccccc2)CSSC[C@@H](C(=O)N[C@@H](CCC(N)=O)C(=O)O)NC(=O)[C@H](CCC(N)=O)NC(=O)[C@@H]2CCCN2C(=O)[C@@H]2CCCN2C(=O)[C@H](CC(N)=O)NC(=O)[C@H](CO)NC(=O)[C@H](Cc2ccc(O)cc2)NC1=O [CH43] (H-FCAYSNPPQCQ-OH; disulfide 2-10; N-terminus and C-terminus assumed),–,–,3.97 µM,9.2 µM
C[C@@H]1NC(=O)[C@@H](NC(=O)[C@@H](N)Cc2ccccc2)CSSC[C@@H](C(=O)N[C@@H](CCC(N)=O)C(=O)O)NC(=O)[C@H](CCCCN)NC(=O)[C@@H]2CCCN2C(=O)[C@@H]2CCCN2C(=O)[C@H](CC(N)=O)NC(=O)[C@H](CO)NC(=O)[C@H](Cc2ccc(O)cc2)NC1=O [CH44] (H-FCAYSNPPKCQ-OH; disulfide 2-10; N-terminus and C-terminus assumed),–,–,8.59 µM,19.9 µM
NC(=O)CC[C@H](NC(=O)[C@@H]1CSSC[C@H](NC(=O)[C@@H](N)Cc2ccccc2)C(=O)N[C@@H](CC(N)=O)C(=O)N[C@@H](Cc2ccc(O)cc2)C(=O)N[C@@H](CO)C(=O)N[C@@H](CC(N)=O)C(=O)N2CCC[C@H]2C(=O)N2CCC[C@H]2C(=O)N[C@@H](CCC(N)=O)C(=O)N1)C(=O)O [CH46] (H-FCNYSNPPQCQ-OH; disulfide 2-10; N-terminus and C-terminus assumed),–,–,–,> 50 µM
CC[C@H](C)[C@H](N)C(=O)N[C@H]1CSSC[C@@H](C(=O)N[C@H](C(=O)O)[C@@H](C)CC)NC(=O)[C@H](CCC(N)=O)NC(=O)[C@H](C)NC(=O)[C@@H]2CCCN2C(=O)[C@H]([C@@H](C)CC)NC(=O)[C@H](CO)NC(=O)[C@H](Cc2ccc(O)cc2)NC(=O)[C@H]([C@@H](C)O)NC1=O [CH47] (H-ICTYSIPAQCI-OH; disulfide 2-10; N-terminus and C-terminus assumed),good chymotrypsin inhibitory activity,–,3.68 µM,8.52 µM
CSCC[C@@H]1NC(=O)[C@H](C)NC(=O)[C@@H]2CCCN2C(=O)[C@H](CC(N)=O)NC(=O)[C@H](CO)NC(=O)[C@H](Cc2ccccc2)NC(=O)[C@H]([C@@H](C)O)NC(=O)[C@@H](NC(=O)[C@@H](N)C(C)C)CSSC[C@@H](C(=O)N[C@@H](Cc2c[nH]cn2)C(=O)O)NC1=O [CH48] (H-VCTFSNPAMCH-OH; disulfide 2-10),–,–,–,> 50 µM
CSCC[C@H](N)C(=O)N[C@H]1CSSC[C@@H](C(=O)N[C@H](C(=O)O)C(C)C)NC(=O)[C@H](CCCCN)NC(=O)[C@H](C)NC(=O)[C@@H]2CCCN2C(=O)[C@H](Cc2c[nH]cn2)NC(=O)[C@H](CO)NC(=O)[C@H](Cc2ccccc2)NC(=O)[C@H]([C@@H](C)O)NC1=O [CH49] (H-MCTFSHPAKCV-OH; disulfide 2-10; N-terminus and C-terminus assumed),good chymotrypsin inhibitory activity,–,9.81 µM,22.7 µM
CSCC[C@@H]1NC(=O)CNC(=O)[C@@H]2CCCN2C(=O)[C@H](CC(=O)O)NC(=O)[C@H](CO)NC(=O)[C@H](Cc2ccccc2)NC(=O)[C@H]([C@@H](C)O)NC(=O)[C@@H](NC(=O)[C@@H](N)CCSC)CSSC[C@@H](C(=O)N[C@@H](CO)C(=O)O)NC1=O [CH50] (H-MCTFSDPGMCS-OH; disulfide 2-10; N-terminus and C-terminus assumed),–,–,–,> 50 µM

# Second part, the molecule after the results:
inhibitory activity against chymotrypsin (in words),Residual activity of chymotrypsin (peptide 1000 μM),Ki,IC50,SMILES
good inhibitory activity,0.9 ± 0.1%,–,–,CC[C@H](C)[C@@H]1NC(=O)[C@H](CO)NC(=O)[C@H](Cc2ccc(O)cc2)NC(=O)[C@H]([C@@H](C)O)NC(=O)[C@@H](NC(=O)[C@@H](N)Cc2ccccc2)CSSC[C@@H](C(=O)N[C@@H](CCCNC(=N)N)C(=O)O)NC(=O)[C@H](CCC(N)=O)NC(=O)[C@@H]2CCCN2C(=O)[C@@H]2CCCN2C1=O [CH35] (H-FCTYSIPPQCR-OH; disulfide 2-10; C-terminus assumed)
–,–,1.39 µM,3.23 µM,CC[C@H](C)[C@@H]1NC(=O)[C@H](CO)NC(=O)[C@H](Cc2ccc(O)cc2)NC(=O)[C@H]([C@@H](C)O)NC(=O)[C@@H](NC(=O)[C@@H](N)Cc2ccccc2)CSSC[C@@H](C(=O)N[C@@H](Cc2ccc(O)cc2)C(=O)O)NC(=O)[C@H](CCCCN)NC(=O)[C@H](C)NC(=O)[C@@H]2CCCN2C1=O [CH36] (H-FCTYSIPAKCY-OH; disulfide 2-10; N-terminus and C-terminus assumed)
–,–,0.78 µM,1.81 µM,CC[C@H](C)[C@@H]1NC(=O)[C@H](CO)NC(=O)[C@H](Cc2ccc(O)cc2)NC(=O)[C@H]([C@@H](C)O)NC(=O)[C@@H](NC(=O)[C@@H](N)Cc2ccccc2)CSSC[C@@H](C(=O)N[C@@H](Cc2ccc(O)cc2)C(=O)O)NC(=O)[C@H](CCC(N)=O)NC(=O)[C@H](C)NC(=O)[C@@H]2CCCN2C1=O [CH37] (H-FCTYSIPAQCY-OH; disulfide 2-10; N-terminus and C-terminus assumed)
–,–,8.29 µM,19.2 µM,C[C@@H]1NC(=O)[C@@H](NC(=O)[C@@H](N)Cc2ccccc2)CSSC[C@@H](C(=O)N[C@@H](CCC(N)=O)C(=O)O)NC(=O)[C@H](CCCCN)NC(=O)[C@@H]2CCCN2C(=O)[C@@H]2CCCN2C(=O)[C@H](Cc2ccc(O)cc2)NC(=O)[C@H](CO)NC(=O)[C@H](Cc2ccc(O)cc2)NC1=O [CH45] (H-FCAYSYPPKCQ-OH; disulfide 2-10; N-terminus and C-terminus assumed)
good chymotrypsin inhibitory activity,–,–,–,CC[C@H](C)[C@@H]1NC(=O)[C@H](CO)NC(=O)[C@H](Cc2ccc(O)cc2)NC(=O)[C@H]([C@@H](C)O)NC(=O)[C@@H](NC(=O)[C@@H]2CCCN2)CSSC[C@@H](C(=O)N[C@@H](Cc2ccc(O)cc2)C(=O)O)NC(=O)[C@H](CCC(N)=O)NC(=O)[C@@H]2CCCN2C(=O)[C@@H]2CCCN2C1=O [CH51] (H-PCTYSIPPQCY-OH; disulfide 2-10; N-terminus and C-terminus assumed)
–,–,0.36 µM,0.84 µM,CC[C@H](C)[C@@H]1NC(=O)[C@H](CO)NC(=O)[C@H](Cc2ccc(O)cc2)NC(=O)[C@H]([C@@H](C)O)NC(=O)[C@@H](NC(=O)[C@@H](N)Cc2ccccc2)CSSC[C@@H](C(=O)N[C@@H](Cc2ccc(O)cc2)C(=O)NCC(=O)O)NC(=O)[C@H](CCC(N)=O)NC(=O)[C@@H]2C[C@@H](O)CN2C(=O)[C@@H]2CCCN2C1=O [CH52] (H-FCTYSIP[Hyp]QCYG-OH; disulfide 2-10)
good chymotrypsin inhibitory activity,–,0.11 µM,0.25 µM,"CC[C@H](C)[C@@H]1NC(=O)[C@H](CO)NC(=O)[C@H](Cc2ccc(O)cc2)NC(=O)[C@H]([C@@H](C)O)NC(=O)[C@@H](NC(=O)[C@@H](N)Cc2ccccc2)CSSC[C@@H](C(=O)N[C@@H](Cc2ccc(O)cc2)C(=O)NCC(=O)O)NC(=O)[C@H](CCC(N)=O)NC(=O)[C@@H]2CCCN2C(=O)[C@@H]2C[C@@H](O)CN2C1=O [CH53, FCTYSIHypPQCYG] (H-FCTYSI[Hyp]PQCYG-OH; disulfide 2-10; C-terminus assumed)"
